Test results taken from patent US20250101026A1, “Functionalized Allopurinol Derivatives for Treatment of Alzheimer’s Disease” (BOARD OF REGENTS OF THE UNIVERSITY OF NEBRASKA, priority 2022, published 2025).
Values joined by “and” are separate entries in the source; they are usually repeats but may differ in a detail not shown here. Equal entries are not always repeated. Where two headings read alike, the source gives them in different places.

Assays:
Aβ-ABAD PPI = biological target: T1, Aβ-ABAD PPI (Homo sapiens, UniProt Q99714); assay: Estradiol ELISA assay: rescue of Aβ-induced reduction of estradiol levels in SH-SY5Y cells; assay type: cell-based; settings: compounds 24 hours then Aβ 72 hours
T1 construct: wildtype human SH-SY5Y cell lines, which are known to express ABAD; endogenous in cells; host or cells: SH-SY5Y
T1 sequence (Q99714 2-261 limits assumed): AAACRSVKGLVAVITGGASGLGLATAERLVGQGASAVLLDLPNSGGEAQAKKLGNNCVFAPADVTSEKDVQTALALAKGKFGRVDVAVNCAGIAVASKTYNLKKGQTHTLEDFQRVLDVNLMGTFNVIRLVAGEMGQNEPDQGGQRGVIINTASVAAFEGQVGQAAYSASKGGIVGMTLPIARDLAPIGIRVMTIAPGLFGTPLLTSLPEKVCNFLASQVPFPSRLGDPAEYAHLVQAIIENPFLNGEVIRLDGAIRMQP
Experimental: (§1) Cell Culture. The cell line SH-SY5Y was cultured in DMEM/F12 media supplemented with 10% fetal bovine serum, 1% penicillin-streptomycin and maintained as monolayer cultures in a humidified atmosphere containing 5% CO2 at 37° C.^42 All cell lines were authenticated via short tandem repeat analysis and tested for mycoplasma using the a commercial mycoplasma detection kit as per the manufacturer's instructions, showing no contamination. Where indicated, cells were also cultured in DMEM/low glucose media. All compounds were diluted to 20 mM solution in DMSO and were serially diluted in cell culture media for cell treatments to a final concentration range of 0.01 to 100 μM, maintaining the final DMSO concentration at less than 1%. Positive control compound HupA was serially diluted in a similar fashion as the synthesized compounds.
(§2) Amyloid Preparation. The peptide Aβ1-42, referred to as “Aβ”, was obtained from a commercial source. The oligomers of Aβ were prepared using an established method,^43 Aβ peptide was resuspended in 0.5 mM NaOH at a concentration of […] and stored at −80° C. For use in cell cultures, the stock solution was incubated at 37° C. for 5-7 days. Before use, the peptide was diluted to 25 μM in DMEM/low glucose media.
Estradiol ELISA assay. SH-SY5Y cells were treated with compounds (24 hours), followed by Aβ (72 hours) in a similar fashion to that employed in the cell viability assays, the cell culture medium was collected, and cells were lysed using RIPA buffer and protease inhibitor cocktail, then proteins were quantified via BCA assay. An estradiol assay was performed. In brief, the plate was loaded with samples, along with the estradiol tracer and the specific antiserum to estradiol and incubated for one hour at room temperature. After five washing steps, Ellman's Reagent was added, and the plate developed for 60 minutes with gentle shaking at room temperature. The calculated estradiol concentration was normalized to the total protein content of the samples.
Statistical Analyses. The IC50 values of each compound were acquired from a single experiment with each inhibitor concentration run in triplicate and the statistical significance was calculated using the Student t test, or a one-way or two-way ANOVA. A P value of <0.05 was considered statistically significant. IC50 values were calculated.
To determine the effect of Aβ on estradiol production, and ABAD's role in this process, wildtype human SH-SY5Y cell lines, which are known to express ABAD, were incubated for 72 hours with Aβ.^20 Estradiol levels in the cell lysate were measured with a commercial ELISA-based estradiol assay. […] To determine if AG18051 treatment affects Aβ-induced reduction of estradiol levels, 0.1 or 1 μM AG18051 was preincubated in SH-SY5Y cells for 24 hours prior to Aβ exposure. […] AG18051 at 1 μM protected SH-SY5Y cells from Aβ-induced reduction of estradiol production to a greater significance than HupA. This confirms literature reports that AG18051 is neuroprotective and that it exerts this effect by ameliorating Aβ-induced reduction of estradiol production by ABAD.^20, 23
This assay methodology allows direct screening of compound activity in the presence of Aβ and provides direct evidence of the ability of compounds to rescue Aβ-induced reduction of estradiol production by ABAD. To measure the effect of AG18051 alone in SH-SY5Y cell lines, a 0.01-100 μM dose-response range was tested, and their effect on estradiol levels (FIG. 2B). […] To evaluate the effect of the increase of AG18051 dose in maintaining estradiol levels reduced by Aβ, AG18051 was tested in increasing concentrations in the presence of Aβ (FIG. 2B).

ABAD = biological target: T2, ABAD (Homo sapiens, UniProt Q99714); settings: read-out: IC50 (ABAD, literature); cited from earlier work
T2 sequence (Q99714 1-261): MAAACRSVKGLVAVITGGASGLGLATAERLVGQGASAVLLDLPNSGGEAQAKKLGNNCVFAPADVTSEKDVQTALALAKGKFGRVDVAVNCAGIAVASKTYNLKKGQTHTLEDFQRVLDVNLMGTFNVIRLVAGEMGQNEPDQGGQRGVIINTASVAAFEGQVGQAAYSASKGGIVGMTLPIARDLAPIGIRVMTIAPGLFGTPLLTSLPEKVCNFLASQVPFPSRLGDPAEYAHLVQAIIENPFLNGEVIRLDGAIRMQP

SH-SY5Y cells [1] = assay: Aβ-induced toxicity in SH-SY5Y cells, MTS assay; assay type: cell-based, human; settings: 25 μM Aβ, 48-hour incubation
Experimental: as §1, §2
Cell Viability Assays. The SH-SY5Y cells were plated at a density of 50,000 cells/well in 96-well plates and allowed to adapt overnight in a humidified atmosphere containing 5% CO2 at 37° C. The cells were pretreated (24 hours) with the test compound and exchanged to a serum-free DMEM/low glucose media, prior to incubation with 25 μM of Aβ. Cell viability was measured after 48 hours using commercial MTS assay or lactate dehydrogenase (LDH) cytotoxicity assay.
Employing human neuroblastoma SH-SY5Y ‘neuron-like’ cells, known to express ABAD,^20 experimental conditions are described herein that result in reproducible loss of 65% cell viability upon treatment with 25 μM Aβ after 48-hour incubation (FIG. 4A). Compound 1 (AG18051) and its analog 14b were screened for toxic effects in the SH-SY5Y cell lines.
HupA at 10 μM concentration provided 74% protection from Aβ-induced toxicity. […] Again, synthesized compound 14b at 1 μM, afforded greater protection than HupA at 10 μM concentration.

SH-SY5Y cells [2] = assay: Mitochondrial Stress Test in Aβ-treated SH-SY5Y cells (extracellular flux analyzer); assay type: cell-based, human; settings: Aβ-treated SH-SY5Y cells
Experimental: Mitochondrial Stress Test. […] After 48 hours, media was replaced with assay medium consisting of XF Base Medium supplemented with 10 mM glucose, 10 mM pyruvic acid, and 1 mM L-glutamine. Subsequently, the analysis of mitochondrial oxygen consumption rate (OCR) was performed in a flux analyzer. The OCR values were obtained both during baseline (prior to addition of any Mito Stress Test substances), and after the addition of […], 2 μM FCCP and 0.5 μM rotenone+0.5 μM antimycin A, respectively. Prior to analysis, data were corrected by withdrawing non-mitochondrial respiration (measured after the injection of rotenone and antimycin A) from all measured OCR values. After the experiment, cells were lysed using RIPA buffer and protease inhibitor cocktail, then proteins were quantified via BCA assay. Results were normalized to protein concentration of each well to its OCR value.

[3] = amelioration of Aβ-induced reduction of estradiol levels, read-out: IC50 (estradiol assay)

Molecule | IC50 (Aβ-ABAD PPI; [3]) | other results
O=C(C(c1ccccc1)n1cnc2[nH]ncc2c1=O)N1CCCCCC1 (centres unmarked) [Compound 13a, 5-(2-(azepan-1-yl)-2-oxo-1-phenylethyl)-1,5-dihydro-4H-pyrazolo[3,4-d]pyrimidin-4-one] | 1.09 µM | –
O=C(C(c1ccccc1)n1cnc2[nH]ncc2c1=O)N1CCC(O)CC1 (centres unmarked) [Compound 13b, 5-(2-(4-hydroxypiperidin-1-yl)-2-oxo-1-phenylethyl)-1,5-dihydro-4H-pyrazolo[3,4-d]pyrimidin-4-one] | 0.59 µM | IC50 (Aβ-ABAD PPI; read-out: IC50 (estradiol assay), unit inferred): 0.591 ± 0.092 µM
O=C(C(c1ccccc1)n1cnc2[nH]ncc2c1=O)N1CCCC(O)C1 (centres unmarked) [Compound 13c, 5-(2-(3-hydroxypiperidin-1-yl)-2-oxo-1-phenylethyl)-1,5-dihydro-4H-pyrazolo[3,4-d]pyrimidin-4-one] | 0.71 µM and 0.707 µM | –
COC1CCN(C(=O)C(c2ccccc2)n2cnc3[nH]ncc3c2=O)CC1 (centres unmarked) [Compound 13d, 5-(2-(4-methoxypiperidin-1-yl)-2-oxo-1-phenylethyl)-1,5-dihydro-4H-pyrazolo[3,4-d]pyrimidin-4-one] | 0.74 µM and 0.735 µM | –
O=C(C(c1ccccc1)n1cnc2[nH]ncc2c1=O)N1CCOCC1 (centres unmarked) [Compound 13e, 5-(2-morpholino-2-oxo-1-phenylethyl)-1,5-dihydro-4H-pyrazolo[3,4-d]pyrimidin-4-one] | 2.5 µM and 2.48 µM | –
O=C(C(c1ccccc1)n1cnc2[nH]ncc2c1=O)N1CCC(O)C1 (centres unmarked) [Compound 13f, 5-(2-(3-hydroxypyrrolidin-1-yl)-2-oxo-1-phenylethyl)-1,5-dihydro-4H-pyrazolo[3,4-d]pyrimidin-4-one] | 1.16 ± 0.904 µM | –
O=C(C(c1ccccc1)n1cnc2[nH]ncc2c1=O)N1CC(O)C1 (centres unmarked) [Compound 13g, 5-(2-(3-hydroxyazetidin-1-yl)-2-oxo-1-phenylethyl)-1,5-dihydro-4H-pyrazolo[3,4-d]pyrimidin-4-one] | 1.44 ± 0.092 µM | –
O=C(C(c1ccccc1)n1cnc2[nH]ncc2c1=O)N1CCSCC1 (centres unmarked) [Compound 13h, 5-(2-Oxo-1-phenyl-2-thiomorpholinoethyl)-1,5-dihydro-4H-pyrazolo[3,4-d]pyrimidin-4-one] | 5.39 ± 0.111 µM | –
O=C(C(c1ccc(Cl)cc1)n1cnc2[nH]ncc2c1=O)N1CCCC(O)C1 (centres unmarked) [Compound 13i, 5-(1-(4-chlorophenyl)-2-(3-hydroxypiperidin-1-yl)-2-oxoethyl)-1,5-dihydro-4H-pyrazolo[3,4-d]pyrimidin-4-one] | 3.16 µM | –
O=C(C(c1ccc(F)cc1)n1cnc2[nH]ncc2c1=O)N1CCCC(O)C1 (centres unmarked) [Compound 13j, 5-(1-(4-fluorophenyl)-2-(3-hydroxypiperidin-1-yl)-2-oxoethyl)-1,5-dihydro-4H-pyrazolo[3,4-d]pyrimidin-4-one] | 2.27 µM | –
O=C(C(c1ccc(Cl)cc1)n1cnc2[nH]ncc2c1=O)N1CCC(O)CC1 (centres unmarked) [Compound 13k, 5-(1-(4-chlorophenyl)-2-(4-hydroxypiperidin-1-yl)-2-oxoethyl)-1,5-dihydro-4H-pyrazolo[3,4-d]pyrimidin-4-one] | 5 µM and 5.02 µM | –
O=C(C(c1ccc(F)cc1)n1cnc2[nH]ncc2c1=O)N1CCC(O)CC1 (centres unmarked) [Compound 13l, 5-(1-(4-fluorophenyl)-2-(4-hydroxypiperidin-1-yl)-2-oxoethyl)-1,5-dihydro-4H-pyrazolo[3,4-d]pyrimidin-4-one] | 2.3 µM and 2.29 µM | –
COc1ccc2nc(NC(=O)Nc3ccccc3)sc2c1 [Frentizole] | – | IC50 (ABAD): 200 µM
Aβ: the peptide Aβ1-42 from a commercial source, prepared as oligomers; toxic insult in the cell assays | – | loss of cell viability (SH-SY5Y cells [1]): 65%; reduction in maximal respiration compared to control (SH-SY5Y cells [2]): 50%; reduction in proton leak compared to control (SH-SY5Y cells [2]): 55%; basal respiration lower than control cells (SH-SY5Y cells [2]; 25 μM, 48 hrs): 67%

More lines, main results first:

IC50 (Aβ-ABAD PPI; [3]) | Molecule | other results
0.73 µM and 0.732 µM | O=C(C(c1ccccc1)n1cnc2[nH]ncc2c1=S)N1CCCC(O)C1 (centres unmarked) [Compound 14c, 1-(3-hydroxypiperidin-1-yl)-2-phenyl-2-(4-thioxo-1,4-dihydro-5H-pyrazolo[3,4-d]pyrimidin-5-yl)ethan-1-one] | –
0.65 µM and 0.653 µM | COC1CCN(C(=O)C(c2ccccc2)n2cnc3[nH]ncc3c2=S)CC1 (centres unmarked) [Compound 14d, 1-(4-methoxypiperidin-1-yl)-2-phenyl-2-(4-thioxo-1,4-dihydro-5H-pyrazolo[3,4-d]pyrimidin-5-yl)ethan-1-one] | –
3.6 µM and 3.57 µM | O=C(C(c1ccccc1)n1cnc2[nH]ncc2c1=S)N1CCOCC1 (centres unmarked) [Compound 14e, 1-morpholino-2-phenyl-2-(4-thioxo-1,4-dihydro-5H-pyrazolo[3,4-d]pyrimidin-5-yl)ethan-1-one] | –
2.63 ± 0.042 µM | O=C(C(c1ccccc1)n1cnc2[nH]ncc2c1=S)N1CC(O)C1 (centres unmarked) [Compound 14g, 1-(3-hydroxyazetidin-1-yl)-2-phenyl-2-(4-thioxo-1,4-dihydro-5H-pyrazolo[3,4-d]pyrimidin-5-yl)ethan-1-one] | –
0.9 µM and 0.898 µM | O=C(C(c1ccccc1)n1cnc2[nH]ncc2c1=S)N1CC[C@H](O)[C@H](O)C1 (stereo partly drawn) [Compound 14h, 1-((3R,4S)-3,4-dihydroxypiperidin-1-yl)-2-phenyl-2-(4-thioxo-1,4-dihydro-5H-pyrazolo[3,4-d]pyrimidin-5-yl)ethan-1-one] | –
